Data as given in patent US10118935B2, “Melampomagnolide B dimers” (priority 2014, dated 2018).
Where two headings read alike, the source gives them in different places.

Key:
HOP-62 = experiment: NCI 60 cell line five dose, Non-Small Cell Lung Cancer; type: cell-based, human; settings: for CC50: read-out: LC50 (the source's name)
IGROV1 = experiment: NCI 60 cell line five dose, Ovarian Cancer; type: cell-based, human

## C=C1C(=O)O[C@H]2[C@H]1CC/C(COC(=O)CCC(=O)NCCCCCCCCNC(=O)CCC(=O)OC/C1=C/CC[C@@]3(C)O[C@H]3[C@H]3OC(=O)C(=C)[C@@H]3CC1)=C\CC[C@@]1(C)O[C@@H]21 [JVM 2-87, bis(((1aR,7aS,10aS,10bS,E)-1a-Methyl-8-methylene-9-oxo-1a,2,3,6,7,7a,8,9,10a,1b-decahydrooxireno[2′,3′:9,10]cyclodeca[1,2-b]furan-5-yl)methyl)4,4′-(octane-1,8-diylbis(azanediyl))bis(4-oxobutanoate)]
NCI-H460
  CC50: 66.2 µM
NCI-H23
  CC50: 42.6 µM
LOX IMVI
  CC50: 5.56 µM
CAKI-1
  CC50: 80.3 µM
A498
  CC50: 49.6 µM
ACHN
  CC50: 34.7 µM
SN12C
  CC50: 53.8 µM
SW-620
  CC50: 7.2 µM
NCI-H522
  CC50: 6.36 µM
BT-549
  CC50: 5.12 µM
UACC-257
  CC50: 16 µM
UACC-62
  CC50: 8.94 µM
OVCAR-5
  CC50: 7.31 µM
SK-MEL-5
  CC50: 38.4 µM
HT29
  CC50: 5.92 µM
RXF 393
  CC50: 7.27 µM
MDA-MB-468
  CC50: 21.3 µM
SNB-75
  CC50: 26.9 µM
MOLT-4
  CC50: > 100 µM
TK-10
  CC50: 7.46 µM
SF-295
  CC50: 56.8 µM
786-0
  CC50: 6.67 µM
NCI/ADR-RES
  CC50: > 100 µM
COLO 205
  CC50: 7.28 µM
HCT-116
  CC50: 5.41 µM
U251
  CC50: 43 µM

## C=C1C(=O)O[C@H]2[C@H]1CC/C(COC(=O)CCC(=O)NCCCCCCCCCNC(=O)CCC(=O)OC/C1=C/CC[C@@]3(C)O[C@H]3[C@H]3OC(=O)C(=C)[C@@H]3CC1)=C\CC[C@@]1(C)O[C@@H]21 [JVM 2-92, bis(((1aR,7aS,10aS,10bS,E)-1a-Methyl-8-methylene-9-oxo-1a,2,3,6,7,7a,8,9,10a,10b-decahydrooxireno[2′,3′:9,10]cyclodeca[1,2-b]furan-5-yl)methyl)4,4′-(nonane-1,9-diylbis(azanediyl))bis (4-oxobutanoate)]
NCI-H460
  CC50: 25.7 µM
NCI-H23
  CC50: 18.5 µM
LOX IMVI
  CC50: 4.06 µM
CAKI-1
  CC50: 49.9 µM
A498
  CC50: 31.3 µM
ACHN
  CC50: 17.2 µM
SN12C
  CC50: 49.7 µM
SW-620
  CC50: 6.14 µM
T-47D
  CC50: > 100 µM
NCI-H522
  CC50: 5.63 µM
BT-549
  CC50: 4.65 µM
UACC-257
  CC50: 32 µM
PC-3
  CC50: 29.6 µM
UACC-62
  CC50: 8.44 µM
OVCAR-5
  CC50: 7.06 µM
SK-MEL-5
  CC50: 9.37 µM
HT29
  CC50: 5.69 µM
RXF 393
  CC50: 6.21 µM
MDA-MB-468
  CC50: 7.04 µM
SNB-75
  CC50: 15.6 µM
MOLT-4
  CC50: > 100 µM
TK-10
  CC50: 6.02 µM
SF-295
  CC50: 52 µM
786-0
  CC50: 6.04 µM
NCI/ADR-RES
  CC50: > 100 µM
COLO 205
  CC50: 8.15 µM
HCT-116
  CC50: 4.97 µM
U251
  CC50: 44.7 µM

## C=C1C(=O)O[C@H]2[C@H]1CC/C(COC(=O)NCCCCNC(=O)OC/C1=C/CC[C@@]3(C)O[C@H]3[C@H]3OC(=O)C(=C)[C@@H]3CC1)=C\CC[C@@]1(C)O[C@@H]21 [JVM 3-54, bis(((1aR,7aS,10aS,10bS,E)-1a-Methyl-8-methylene-9-oxo-1a,2,3,6,7,7a,8,9,10a,10b-decahydrooxireno[2′,3′:9,10]cyclodeca[1,2-b]furan-5-yl)methyl)butane-1,4-diyldicarbamate]
HOP-62
  GI50: 3.84 µM
  TGI: 1.4e-05 M
  CC50: 46.1 µM
HOP-62; Log10 Concentration −4.0
  Percent Growth: −82%
HOP-62; Log10 Concentration −5.0
  Percent Growth: 14%
HOP-62; Log10 Concentration −6.0
  Percent Growth: 101%
HOP-62; Log10 Concentration −7.0
  Percent Growth: 95%
HOP-62; Log10 Concentration −8.0
  Percent Growth: 94%
IGROV1
  GI50: 3.32 µM
  TGI: 1.24e-05 M
IGROV1; Log10 Concentration −4.0
  Percent Growth: −76%
IGROV1; Log10 Concentration −5.0
  Percent Growth: 8%
IGROV1; Log10 Concentration −6.0
  Percent Growth: 96%
IGROV1; Log10 Concentration −7.0
  Percent Growth: 104%
IGROV1; Log10 Concentration −8.0
  Percent Growth: 101%
IGROV1; read-out: LC50 (the source's name)
  CC50: 48.6 µM

## C=C1C(=O)O[C@H]2[C@H]1CC/C(COC(=O)NCCCCCCCCNC(=O)OC/C1=C/CC[C@@]3(C)O[C@H]3[C@H]3OC(=O)C(=C)[C@@H]3CC1)=C\CC[C@@]1(C)O[C@@H]21 [JVM 3-62, bis(((1aR,7aS, 10aS, 10bS, E)-1a-Methyl-8-methylene-9-oxo-1a,2,3,6,7,7a,8,9,10a,10b-decahydrooxireno[2′,3′:9,10]cyclodeca[1,2-b]furan-5-yl)methyl)octane-1,8-diyldicarbamate]
HOP-62; Log10 Concentration −4.0
  Percent Growth: −80%
HOP-62; Log10 Concentration −5.0
  Percent Growth: −64%
HOP-62; Log10 Concentration −6.0
  Percent Growth: 76%
HOP-62; Log10 Concentration −7.0
  Percent Growth: 103%
HOP-62; Log10 Concentration −8.0
  Percent Growth: 103%
HOP-62; molar
  GI50: 1.53 µM
  TGI: 3.49E−6
  CC50: 7.95 µM
IGROV1; Log10 Concentration −4.0
  Percent Growth: −71%
IGROV1; Log10 Concentration −5.0
  Percent Growth: −71%
IGROV1; Log10 Concentration −6.0
  Percent Growth: 61%
IGROV1; Log10 Concentration −7.0
  Percent Growth: 102%
IGROV1; Log10 Concentration −8.0
  Percent Growth: 105%
IGROV1; molar
  GI50: 1.01 µM
  TGI: 2.61E−6
